Test results reported in the supplement of paper PMC10307832.

Key:
Experiment in all cases: relative viability (nuclei count vs DMSO), 5 days (fraction); higher = more cells survive
[1] = compound: C1/C(=C\C2=CC=CS2)/C(=O)/C(=C/C3=CC=CS3)/C1 + COc1cccc2cc(-c3nc([C@H]4CC[C@H](C(=O)O)CC4)n4ncnc(N)c34)[nH]c12 [OSI-027] (partner 0.5 µM)
How it was run: (§1)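 After 5 days of treatment, lung cancer cells in 1536-well plates were fixed and stained in a single step (final 0.05% Triton X-100, 1% formaldehyde, 1 ug/ml Hoechst) and their nuclei counted on 4× images. Treatment had been applied by pin tool the day after seeding as one drug alone or as a fixed anchor-drug dose with five library-drug doses (not always all listed) in √10 steps. Relative viability is the nuclei count of treated wells divided by that of vehicle wells, and values are medians of duplicate plates.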

[2] = compound: C1/C(=C\C2=CC=CS2)/C(=O)/C(=C/C3=CC=CS3)/C1 + Cc1nc(Nc2ncc(C(=O)Nc3c(C)cccc3Cl)s2)cc(N2CCN(CCO)CC2)n1 [Dasatinib] (partner 0.075 µM)
How it was run: as §1

TPCA-1 + Trametinib = compound: C1=CC(=CC=C1C2=CC(=C(S2)NC(=O)N)C(=O)N)F [TPCA-1] + CC(=O)Nc1cccc(-n2c(=O)n(C3CC3)c(=O)c3c(Nc4ccc(I)cc4F)n(C)c(=O)c(C)c32)c1 [Trametinib] (partner 0.02 µM)
How it was run: as §1

TPCA-1 + Phenformin = compound: C1=CC(=CC=C1C2=CC(=C(S2)NC(=O)N)C(=O)N)F [TPCA-1] + N=C(N)NC(=N)NCCc1ccccc1 [Phenformin] (partner 250 µM)
How it was run: as §1

Row | Cell Line | relative viability ([1]; first compound 0.2 µM) | relative viability ([1]; first compound 0.6325 µM) | relative viability ([1]; first compound 2 µM) | relative viability ([1]; first compound 6.325 µM) | relative viability ([1]; first compound 20 µM) | relative viability ([2]; first compound 0.2 µM) | relative viability ([2]; first compound 0.6325 µM) | relative viability ([2]; first compound 2 µM) | relative viability ([2]; first compound 6.325 µM) | relative viability ([2]; first compound 20 µM) | relative viability (TPCA-1 + Trametinib; first compound 0.04 µM) | relative viability (TPCA-1 + Trametinib; first compound 0.1265 µM) | relative viability (TPCA-1 + Trametinib; first compound 0.4 µM) | relative viability (TPCA-1 + Trametinib; first compound 1.265 µM) | relative viability (TPCA-1 + Trametinib; first compound 4 µM) | relative viability (TPCA-1 + Phenformin; first compound 0.04 µM) | relative viability (TPCA-1 + Phenformin; first compound 0.1265 µM) | relative viability (TPCA-1 + Phenformin; first compound 0.4 µM) | relative viability (TPCA-1 + Phenformin; first compound 1.265 µM) | relative viability (TPCA-1 + Phenformin; first compound 4 µM)
1 | LU99A | 0.329 | 0.286 | 0.33 | 0.322 | 0.291 | 0.611 | 0.539 | 0.714 | 0.623 | 0.554 | 0.66 | 0.487 | 0.553 | 0.466 | 0.284 | 0.989 | 0.82 | 0.835 | 0.646 | 0.603
2 | PC-14 | 0.916 | 0.854 | 0.805 | 0.749 | 0.766 | 0.32 | 0.264 | 0.285 | 0.241 | 0.222 | 0.885 | 0.687 | 0.79 | 0.705 | 0.57 | 0.575 | 0.492 | 0.717 | 0.508 | 0.568
3 | NCI-H2085 | 0.884 | 1.04 | 0.754 | 0.685 | 0.678 | 0.233 | 0.258 | 0.221 | 0.237 | 0.236 | – | 0.613 | 0.655 | 0.532 | 0.514 | 0.837 | 0.616 | 0.693 | 0.555 | 0.389
4 | NCI-H2170 | 0.713 | 0.728 | 0.77 | 0.416 | 0.785 | 0.47 | 0.632 | 0.639 | 0.622 | 0.511 | 0.903 | 0.907 | 0.937 | 0.866 | 0.455 | 0.478 | 0.401 | 0.424 | 0.402 | 0.362
5 | HCC-78 | 0.372 | 0.404 | 0.431 | 0.37 | 0.326 | 0.332 | 0.461 | 0.537 | 0.413 | 0.291 | 0.837 | 0.677 | 0.722 | 0.78 | 0.519 | 0.724 | 0.732 | 0.657 | 0.693 | 0.436
6 | NCI-H1395 | 0.672 | 0.614 | 0.772 | 0.597 | 0.643 | 0.422 | 0.406 | 0.399 | 0.406 | 0.382 | 1.23 | 0.939 | 1.11 | 1.05 | 0.884 | 0.445 | 0.488 | 0.449 | 0.436 | 0.499
7 | NCI-H2126 | 0.74 | 0.645 | 0.711 | 0.598 | 0.774 | 0.624 | 0.585 | 0.597 | 0.532 | 0.577 | 0.534 | 0.528 | 0.58 | 0.538 | 0.555 | 0.561 | 0.499 | 0.53 | 0.537 | 0.44
8 | H3255 | 0.585 | 0.589 | 0.541 | 0.568 | 0.566 | 0.298 | 0.366 | 0.568 | 0.321 | 0.289 | 0.728 | 0.545 | 0.62 | 0.596 | 0.519 | 0.39 | 0.39 | 0.353 | 0.356 | 0.316
